Reference: PMC4657098, “A Review of the Updated Pharmacophore for the Alpha 5 GABA(A) Benzodiazepine Receptor Model” (International Journal of Medicinal Chemistry, 2015)
Where “and” joins values, the source holds several entries; their conditions need not be identical. Identical values can stand only once. Like-named read-outs stand apart in the source and are kept apart here.

Experiments:
Design in all cases: expressed in transfected cells
α6β3γ2 GABAA/BzR = α6β3γ2 GABAA/BzR (Homo sapiens, UniProt P18507+Q16445); assay: Competition binding to HEK cell membranes, α6β3γ2
α1β3γ2 GABAA/BzR = α1β3γ2 GABAA/BzR (Homo sapiens, UniProt P14867+P18507); assay: Competition binding to HEK cell membranes, α1β3γ2
α5β3γ2 GABAA/BzR = α5β3γ2 GABAA/BzR (Homo sapiens, UniProt P18507+P31644); assay: Competition binding to HEK cell membranes, α5β3γ2
α3β3γ2 GABAA/BzR = α3β3γ2 GABAA/BzR (Homo sapiens, UniProt P18507+P34903); assay: Competition binding to HEK cell membranes, α3β3γ2
α2β3γ2 GABAA/BzR = α2β3γ2 GABAA/BzR (Homo sapiens, UniProt P18507+P47869); assay: Competition binding to HEK cell membranes, α2β3γ2

| SMILES | Ki (α6β3γ2 GABAA/BzR; read-out: Ki α6) | Ki (α1β3γ2 GABAA/BzR; read-out: Ki α1) | Ki (α5β3γ2 GABAA/BzR; read-out: Ki α5) | Ki (α3β3γ2 GABAA/BzR; read-out: Ki α3) | Ki (α2β3γ2 GABAA/BzR; read-out: Ki α2) | also measured |
| --- | --- | --- | --- | --- | --- | --- |
| O=C1C2C=Nc3ccccc3C2=NN1c1ccccc1 (stereo not shown) [QH-II-090 (CGS-8216), reference compound] |  |  |  |  |  | Ki (α6β3γ2 GABAA/BzR; Ki α6): 46 nM and 17 nM; Ki (α1β3γ2 GABAA/BzR; Ki α1): 0.13 nM and 0.05 nM; Ki (α5β3γ2 GABAA/BzR; Ki α5): 0.25 nM; Ki (α3β3γ2 GABAA/BzR; Ki α3): 0.12 nM; Ki (α2β3γ2 GABAA/BzR; Ki α2): 0.08 nM |
| Cc1nnc2n1-c1ccc(Br)cc1C(c1ccccc1F)=NC2 [JYI-64] | 5000 nM | 0.305 nM | 0.87 nM | 0.62 nM | 1.11 nM |  |
| C#Cc1ccc2c(c1)C(=O)N(C)Cc1c(C(=O)OC(C)(C)C)ncn1-2 [RY-024] | 5.1 nM | 26.9 nM | 0.4 nM | 18.7 nM | 26.3 nM |  |
| Fc1ccc2c(c1)[nH]c1c2ncc2[nH]c3ccccc3c21 [MLT-II-16] | 10000 nM | 5.05 nM | 260 nM | 18.4 nM | 10.4 nM |  |
| CCOC(=O)c1ncoc1-c1ncn2c1C1CCN1C(=O)c1cc(Br)ccc1-2 (stereo not shown) [RY-062 (12)] |  |  |  |  |  | Ki (α6β3γ2 GABAA/BzR; Figure 5, read-out: Ki α6): > 2000 nM; Ki (α1β3γ2 GABAA/BzR; Figure 5, read-out: Ki α1): > 1000 nM; Ki (α5β3γ2 GABAA/BzR; Figure 5, read-out: Ki α5): 172 nM; Ki (α3β3γ2 GABAA/BzR; Figure 5, read-out: Ki α3): > 500 nM; Ki (α2β3γ2 GABAA/BzR; Figure 5, read-out: Ki α2): > 1000 nM |
| CC(C)(C)OC(=O)c1ncn2c1[C@@H]1CCCN1C(=O)c1cc(-c3ccco3)ccc1-2 [JYI-06] | 5000 nM | 16.5 nM | 12.6 nM | 5000 nM | 5.48 nM |  |
| c1ccc2c(c1)[nH]c1cnc3c4cccnc4[nH]c3c12 [LJD-III-15E] | 1000 nM | 1.93 nM | 70.8 nM | 19 nM | 14 nM |  |
| CC(C)(C)OC(=O)c1ncn2c1[C@@H]1CCCN1C(=O)c1c(Br)cccc1-2 [BRETAZENIL, reference compound] |  |  |  |  |  | Ki (α6β3γ2 GABAA/BzR; Ki α6): 12.7 nM; Ki (α1β3γ2 GABAA/BzR; Ki α1): 0.35 nM; Ki (α5β3γ2 GABAA/BzR; Ki α5): 0.5 nM; Ki (α3β3γ2 GABAA/BzR; Ki α3): 0.2 nM; Ki (α2β3γ2 GABAA/BzR; Ki α2): 0.64 nM |
| CC(C)c1nc(-c2ncn3c2CN(C)C(=O)c2c(Cl)cccc2-3)no1 [FG8205, reference compound] | 227 nM | 0.4 nM | 1.54 nM | 1.16 nM | 2.08 nM |  |
| c1ccc2c(c1)[nH]c1c2ncc2[nH]c3ccccc3c21 [MLT-I-70] | 1000 nM | 1.1 nM | 40.3 nM | 1.1 nM | 1.2 nM |  |
| Cc1nnc2n1-c1ccc(Br)cc1C(c1ccccc1Cl)=NC2 [DM-II-90] | 5000 nM | 0.505 nM | 0.37 nM | 0.63 nM | 1 nM |  |
| C#Cc1ccc2c(c1)C(c1ccccc1F)=NCc1c(C(=O)OCC(F)(F)F)ncn1-2 [JYI-59] | 5000 nM | 1.08 nM | 11.5 nM | 11.8 nM | 2.6 nM |  |
| Cc1nnc2n1-c1ccc(Cl)cc1C(c1ccccc1)=NC2 [alprazolam, reference compound] |  |  |  |  |  | Ki (α6β3γ2 GABAA/BzR; Ki α6): 10000 nM and 1000 nM; Ki (α1β3γ2 GABAA/BzR; Ki α1): 0.8 nM; Ki (α5β3γ2 GABAA/BzR; Ki α5): 1.54 nM; Ki (α3β3γ2 GABAA/BzR; Ki α3): 1.43 nM; Ki (α2β3γ2 GABAA/BzR; Ki α2): 0.59 nM |
| Cc1nnc2n1-c1ccc(Br)cc1C(c1ccccc1F)=NC2 [JYI-64 (C17H12N4FBr)] | 5000 nM | 0.305 nM | 0.87 nM | 0.62 nM | 1.11 nM |  |
| CCCC(=O)c1cc2c(cn1)[nH]c1ccccc12 [MSA-IV-35] | 3000 nM | 2.1 nM | 995 nM | 21 nM | 16 nM |  |
| O=C(OCC(F)(F)F)c1ncn2c1CN=C(c1ccccc1)c1ccccc1-2 [DM-II-30] | 5000 nM | 17.6 nM | 7.8 nM | 28.5 nM | 13.4 nM |  |
| CN1Cc2c(C(=O)OC3CC3)ncn2-c2ccc(Cl)cc2C1=O [CD-214] | 168 nM | 16.4 nM | 9.8 nM | 42.5 nM | 48.2 nM |  |
